# In patent US20060287247A1, “Halogen-substituted thienyl compounds” (priority 2001, published 2006):
# Like-named read-outs stand apart in the source and are kept apart here.
# What was measured:
# [1] = test system: E. faecalis ATCC 29212; assay: NCCLS broth microdilution MIC; type: cell-based, Enterococcus faecalis; conditions: for MIC: Enterococcus faecalis
# Description: (§1) Compounds according to this invention were screened for their in vitro activities against selected species of bacteria and fungi. The minimal inhibition concentration (MIC) of these compounds was determined using the National Committee for Clinical Laboratory Standards (NCCLS) broth microdilution assay in microtiter plates, as set forth in: (1) the guidelines of the National Committee for Clinical Laboratory Standards (NCCLS) Document M7-A4 (NCCLS, 1997); (2) the guidelines of the National Committee for Clinical Laboratory Standards (NCCLS) Document M11-A4 (NCCLS, 1997); and (3) the guidelines and reference method of the National Committee for Clinical Laboratory Standards (NCCLS) Document M27-T (NCCLS, 1995). For antifungal essays, the method recommended in Murray, P R., 1995 Manual of Clinical Microbiology (ASM Press, Washington, D.C.), was employed. […]
# [2] = test system: B. cereus ATCC 11778; assay: NCCLS broth microdilution MIC; type: cell-based, Bacillus cereus; conditions: for MIC: Bacillus cereus
# Description: as §1
# [3] = test system: E. coli ATCC 25922; assay: NCCLS broth microdilution MIC; type: cell-based; conditions: for MIC: Escherichia coli
# Description: as §1
# [4] = test system: C. albicans ATCC 38247; assay: NCCLS broth microdilution MIC (antifungal); type: cell-based; conditions: E = C. albicans ATCC 38247
# Description: as §1
# [5] = test system: S. pneumoniae ATCC 49619; assay: NCCLS broth microdilution MIC; type: cell-based, Streptococcus pneumoniae; conditions: for MIC: Streptococcus pneumoniae
# Description: as §1
# [6] = test system: S. aureus ATCC 29213; assay: NCCLS broth microdilution MIC; type: cell-based, Staphylococcus aureus; conditions: for MIC: Staphylococcus aureus
# Description: as §1
# [7] = ATCC29212, B = E. faecalis ATCC 29212, read-out: Minimum Inhibitory Concentration (MIC)
# [8] = ATCC11778, C = B. cereus ATCC 11778, read-out: Minimum Inhibitory Concentration (MIC)
# [9] = ATCC25922, D = E. coli ATCC 25922, read-out: Minimum Inhibitory Concentration (MIC)
# [10] = ATCC49619, F = S. pneumoniae ATCC 49619, read-out: Minimum Inhibitory Concentration (MIC)
Minimum Inhibitory Concentration (MIC) ([1]; B = E. faecalis ATCC 29212),Minimum Inhibitory Concentration (MIC) ([2]; C = B. cereus ATCC 11778),Minimum Inhibitory Concentration (MIC) ([3]; D = E. coli ATCC 25922),Minimum Inhibitory Concentration (MIC) [4],Minimum Inhibitory Concentration (MIC) ([5]; F = S. pneumoniae ATCC 49619),Minimum Inhibitory Concentration (MIC) ([6]; A = S. aureus ATCC 29213),SMILES,also measured
+++ (+++ = MIC ≦4),+++ (+++ = MIC ≦4),"+ (+ = MIC from 12 to 32, inclusive)","+ (+ = MIC from 12 to 32, inclusive)",+++ (+++ = MIC ≦4),,Cn1cc(NC(=O)c2cc(NC(=O)c3cc(NC(=O)c4scc(Br)c4Cl)cn3C)cn2C)cc1C(=O)NCCN1CCCCC1 [Ie-15],
,,,,,,Cn1cc(NC(=O)c2cc(NC(=O)c3ccc(NC(=O)c4nc(NC(=O)c5sccc5Cl)cn4C)cc3)cn2C)cc1C(=O)NCCN1CCC(F)(F)CC1 [Ih-2],"MIC [1, 7]: < 4 µg/mL; MIC [2, 8]: > 32 µg/mL; MIC [3, 9]: > 32 µg/mL; MIC ([4]; Candida albicans, ATCC38247, read-out: Minimum Inhibitory Concentration (MIC)): > 32 µg/mL; MIC [5, 10]: < 4 µg/mL"
>32 µg/mL,>32 µg/mL,>32 µg/mL,>32 µg/mL,>32 µg/mL,>32 µg/mL,CN(C)CCCNC(=O)CCNC(=O)c1cc(NC(=O)c2cc(NC(=O)c3cc(NC(=O)c4nc(NC(=O)CCCNC(=O)c5cc(NC(=O)c6cc(NC(=O)c7cc(NC(=O)c8cc(Br)c(Br)s8)cn7C)cn6C)cn5C)cn4C)cn3C)cn2C)cn1C [If-1],
>32 µg/mL,+++ (+++ = MIC ≦4),>32 µg/mL,"+ (+ = MIC from 12 to 32, inclusive)",+++ (+++ = MIC ≦4),++ (++ = MIC between 4 and 12),CN(C)CCCNC(=O)CCNC(=O)c1cc(NC(=O)c2cc(NC(=O)CCNC(=O)c3cc(NC(=O)c4cc(NC(=O)c5sccc5Cl)cn4C)cn3C)cn2C)cn1C [Id-27],
>32 µg/mL,>32 µg/mL,>32 µg/mL,>32 µg/mL,>32 µg/mL,>32 µg/mL,Cn1cc(NC(=O)c2cc(NC(=O)c3cc(NC(=O)c4ccc(Br)s4)cn3C)cn2C)cc1C(=O)NCCCC(=O)Nc1cn(C)c(C(=O)Nc2cc(C(=O)Nc3cc(C(=O)Nc4cc(C(=O)NCCC(=O)NCCCN5CCNCC5)n(C)c4)n(C)c3)n(C)c2)n1 [If-2],
>32 µg/mL,>32 µg/mL,>32 µg/mL,>32 µg/mL,++ (++ = MIC between 4 and 12),>32 µg/mL,CN(C)CCCNC(=O)CCNC(=O)c1cc(NC(=O)c2cc(NC(=O)CCNC(=O)c3cc(NC(=O)c4cc(NC(=O)c5sccc5F)cn4C)cn3C)cn2C)cn1C [Id-30],
++ (++ = MIC between 4 and 12),"+ (+ = MIC from 12 to 32, inclusive)",>32 µg/mL,>32 µg/mL,+++ (+++ = MIC ≦4),++ (++ = MIC between 4 and 12),CN(C)CCCNC(=O)c1cc(NC(=O)c2cc(NC(=O)c3cc(NC(=O)c4sccc4F)cn3C)cn2C)cn1C [Ie-4],
>32 µg/mL,,,>32 µg/mL,>32 µg/mL,>32 µg/mL,CN(C)CCCNC(=O)CCNC(=O)c1cc(NC(=O)c2cc(NC(=O)CCNC(=O)c3cc(NC(=O)c4ccc(Cl)s4)cn3C)cn2C)cn1C [Id-29],
,,,,,,"CC1COc2c(N3CCN(C)CC3)c(F)cc3c(=O)c(C(=O)O)cn1c23 (stereo not shown) [Ofloxacin, reference compound]","MIC ([6]; ATCC29213, A = S. aureus ATCC 29213, read-out: Minimum Inhibitory Concentration (MIC)): < 4 µg/mL; MIC [1, 7]: 4 to 12 µg/mL; MIC [2, 8]: < 4 µg/mL; MIC [3, 9]: < 4 µg/mL; MIC [5, 10]: < 4 µg/mL"
>32 µg/mL,,,>32 µg/mL,>32 µg/mL,>32 µg/mL,Cn1cc(NC(=O)c2cc(NC(=O)c3cc(NC(=O)c4sccc4Cl)cn3CCCO)cn2C)cc1C(=O)NCCC(=O)NCCN1CCOCC1 [Ig-2],
+++ (+++ = MIC ≦4),,,>32 µg/mL,+++ (+++ = MIC ≦4),+++ (+++ = MIC ≦4),CC(C)S(=O)(=O)c1csc(C(=O)Nc2csc(C(=O)Nc3cc(C(=O)Nc4cc(C(=O)NCCN5CCOCC5)n(C)c4)n(C)c3)c2)c1Cl [Ig-4],
+++ (+++ = MIC ≦4),,,>32 µg/mL,++ (++ = MIC between 4 and 12),+++ (+++ = MIC ≦4),Cn1cc(NC(=O)c2cc(NC(=O)c3cc(NC(=O)c4sccc4Cl)cs3)cn2C)cc1C(=O)NCCN1CCOCC1 [Ig-1],
+++ (+++ = MIC ≦4),+++ (+++ = MIC ≦4),>32 µg/mL,>32 µg/mL,+++ (+++ = MIC ≦4),,Cn1cc(NC(=O)c2cc(NC(=O)c3cc(NC(=O)c4sccc4Cl)cn3C)cn2C)cc1C(=O)NCCN1CCC(F)CC1 [Ie-13],
>32 µg/mL,,,>32 µg/mL,"+ (+ = MIC from 12 to 32, inclusive)",>32 µg/mL,CN(C)CCCNC(=O)CCNC(=O)c1cc(NC(=O)c2cc(NC(=O)CCNC(=O)c3cc(NC(=O)c4cc(NC(=O)c5sc(Br)c(Br)c5Cl)cn4C)cn3C)cn2C)cn1C [Id-26],
+++ (+++ = MIC ≦4),,,>32 µg/mL,+++ (+++ = MIC ≦4),+++ (+++ = MIC ≦4),Cn1cc(NC(=O)c2cc(NC(=O)c3cc(NC(=O)c4sccc4F)cs3)cn2C)cc1C(=O)NCCN1CCOCC1 [Ig-5],
+++ (+++ = MIC ≦4),+++ (+++ = MIC ≦4),>32 µg/mL,>32 µg/mL,+++ (+++ = MIC ≦4),,Cn1cc(NC(=O)c2cc(NC(=O)c3cc(NC(=O)c4cc(NC(=O)c5sccc5Cl)cn4C)cn3C)cn2C)cc1C(=O)NCCN1CCOCC1 [Ie-12],
+++ (+++ = MIC ≦4),,,>32 µg/mL,+++ (+++ = MIC ≦4),+++ (+++ = MIC ≦4),Cn1cc(NC(=O)c2cc(NC(=O)c3cc(NC(=O)c4sccc4Br)cn3C)cn2C)cc1C(=O)NCCN1CCOCC1 [Ie-2],
,,,,,,"Cn1cc(NC(=O)c2cc(NC(=O)CNC(=N)N)cn2C)cc1C(=O)NCCC(=N)N [Netropsin, netropsin, reference compound]","MIC ([6]; ATCC29213, read-out: Minimum Inhibitory Concentration (MIC)): < 4 µg/mL; MIC ([1]; ATCC29212, read-out: Minimum Inhibitory Concentration (MIC)): < 4 µg/mL; MIC ([2]; ATCC11778, read-out: Minimum Inhibitory Concentration (MIC)): < 4 µg/mL; MIC ([3]; ATCC25922, read-out: Minimum Inhibitory Concentration (MIC)): < 4 µg/mL; MIC ([5]; ATCC49619, read-out: Minimum Inhibitory Concentration (MIC)): < 4 µg/mL"
+++ (+++ = MIC ≦4),+++ (+++ = MIC ≦4),>32 µg/mL,>32 µg/mL,+++ (+++ = MIC ≦4),,Cn1cc(NC(=O)c2cc(NC(=O)c3cc(NC(=O)c4scc(Br)c4Cl)cn3C)cn2C)cc1C(=O)NCCN1CCSCC1 [Ie-14],
>32 µg/mL,,,>32 µg/mL,+++ (+++ = MIC ≦4),++ (++ = MIC between 4 and 12),Cn1cc(NC(=O)c2cc(NC(=O)c3cc(NC(=O)c4cc(Br)cs4)cn3C)cn2C)cc1C(=O)NCCN1CCOCC1 [Ie-3],
"+ (+ = MIC from 12 to 32, inclusive)",,,>32 µg/mL,+++ (+++ = MIC ≦4),+++ (+++ = MIC ≦4),CN(C)CCCNC(=O)CCNC(=O)c1cc(NC(=O)c2cc(NC(=O)CCNC(=O)c3cc(NC(=O)c4cscc4Cl)cn3C)cn2C)cn1C [Id-28],

SMILES,Minimum Inhibitory Concentration (MIC) ([1]; B = E. faecalis ATCC 29212),Minimum Inhibitory Concentration (MIC) ([2]; C = B. cereus ATCC 11778),Minimum Inhibitory Concentration (MIC) ([3]; D = E. coli ATCC 25922),Minimum Inhibitory Concentration (MIC) [4],Minimum Inhibitory Concentration (MIC) ([5]; F = S. pneumoniae ATCC 49619),Minimum Inhibitory Concentration (MIC) ([6]; A = S. aureus ATCC 29213),also measured
Cn1cc(NC(=O)c2cc(NC(=O)c3nc(NC(=O)c4scc(Br)c4Cl)cn3C)cn2C)cc1C(=O)NCCN1CCSCC1 [Ig-10],+++ (+++ = MIC ≦4),+++ (+++ = MIC ≦4),>32 µg/mL,>32 µg/mL,+++ (+++ = MIC ≦4),,
